In one series the target is Cannabinoid receptor 2 (Homo sapiens, UniProt P34972).
Series [1] is described as follows: in vivo. The following applies: Sprague-Dawley, rat.
Description: Volume of distribution in Sprague-Dawley rat
Series [2] is described as follows: in vivo. The conditions noted are these: Sprague-Dawley, rat, brain, iv.
Description: Ratio of drug level in brain to plasma in iv dosed Sprague-Dawley rat after 0.25 hr
Series [3] is described as follows: in vivo. The following applies: Sprague-Dawley, rat. The source holds these as a separate data set.
Description: Plasma clearance in Sprague-Dawley rat
A short description of series [4]: in vivo. The conditions noted are these: Sprague-Dawley, rat. The source holds these as a separate data set.
Description: Half life in Sprague-Dawley rat
The nature of series [5]: in vivo. The conditions noted are these: Sprague-Dawley, rat. This is another data set of the same source.
Description: Bioavailability in Sprague-Dawley rat
Series [6] is described as follows: in vivo. The conditions noted are these: Sprague-Dawley, rat, brain, iv. This is another data set of the same source.
Description: Ratio of drug level in brain to plasma in iv dosed Sprague-Dawley rat after 4 hrs

These results are taken from ChEMBL document CHEMBL1139131, “Lead optimization of 5,6-diarylpyridines as CB1 receptor inverse agonists” (Bioorg Med Chem Lett, 2007).

Chain of Cannabinoid receptor 2 (P34972 whole entry): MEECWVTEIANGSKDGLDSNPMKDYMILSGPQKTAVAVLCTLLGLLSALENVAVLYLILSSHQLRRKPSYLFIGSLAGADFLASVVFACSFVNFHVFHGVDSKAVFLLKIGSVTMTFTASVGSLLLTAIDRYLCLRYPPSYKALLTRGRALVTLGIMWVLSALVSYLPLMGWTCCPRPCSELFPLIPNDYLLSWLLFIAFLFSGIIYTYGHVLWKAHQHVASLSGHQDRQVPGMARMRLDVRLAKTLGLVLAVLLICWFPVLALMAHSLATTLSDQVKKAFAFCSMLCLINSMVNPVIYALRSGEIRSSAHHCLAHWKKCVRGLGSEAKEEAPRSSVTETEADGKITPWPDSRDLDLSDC
Description for Cannabinoid receptor 2: Binding affinity at CB2 receptor

By IC50 is commonly meant the concentration needed to halve the response being measured. Higher therefore signals lower potency. Take `N#Cc1cc(-c2ccc(Cl)cc2)c(-c2ccc(Cl)cc2Cl)nc1Oc1cc(F)cc(F)c1`: 320 nM corresponded to half-maximal inhibition against Cannabinoid receptor 2 (IC50).

Broadly, the Vd is the apparent volume that relates the amount in the body to the concentration in plasma or blood. A low value points to confinement near the circulation. The term clearance denotes the volume of plasma or blood freed of the substance per unit of time. As usually defined, the half-life is the time in which the quantity being followed falls by half. A higher half-life goes with slow loss. The bioavailability is the share of a dose that reaches the circulation, judged against a reference dose that is usually intravenous. The compound `CN(C)NC(=O)c1cc(-c2ccc(Cl)cc2)c(-c2ccc(Cl)cc2Cl)nc1Oc1ccc(F)c(F)c1` displayed a Vd in the series “in vivo [1]” of 6.7 L/kg. In “in vivo [2]”, the Kp at […] was 1.2. This compound gave a clearance in the series “in vivo [3]” of 24 mL/min/kg. This compound gave a half-life in the series “in vivo [4]” of 4.1 h. Also, at Cannabinoid receptor 2, half-maximal inhibition (IC50) was put at 1800 nM. This compound also came in with a bioavailability in the series “in vivo [5]” of 26%. In addition, in “in vivo [6]”, the Kp at 4 h worked out at 3.

In turn, `N#Cc1cc(-c2ccc(Cl)cc2)c(-c2ccc(Cl)cc2Cl)nc1OC1CCOC1` (configuration not stated) showed an IC50 at Cannabinoid receptor 2 of 730 nM.

As to `N#Cc1cc(-c2ccc(Cl)cc2)c(-c2ccc(Cl)cc2Cl)nc1-n1nnc2ccccc21`, on Cannabinoid receptor 2, the IC50 is 465 nM.

Consider `CC(C)(C)N1CCN(c2nc(-c3ccccc3Cl)c(-c3ccc(Cl)cc3)cc2C#N)CC1`, for which, on Cannabinoid receptor 2, the IC50 turned out to be 2600 nM.

As for `CC(C)(C)C(=O)N1CCN(c2nc(-c3ccccc3Cl)c(-c3ccc(Cl)cc3)cc2C#N)CC1`, at Cannabinoid receptor 2, the IC50 stood at 1100 nM.

Regarding `N#Cc1cc(-c2ccc(Cl)cc2)c(-c2ccccc2Cl)nc1-c1cccnc1`, the IC50 against Cannabinoid receptor 2 came to 3700 nM.

Consider `N#Cc1cc(-c2ccc(Cl)cc2)c(-c2ccc(Cl)cc2Cl)nc1N1CCCCC1`, for which it took 4000 nM to reach half-maximal inhibition against Cannabinoid receptor 2 (IC50).

`N#Cc1cc(-c2ccc(Cl)cc2)c(-c2ccc(Cl)cc2Cl)nc1OCC1CCOC1` (configuration not stated) came in with a concentration for half-maximal inhibition (IC50) against Cannabinoid receptor 2 of 430 nM.

On Cannabinoid receptor 2, `CC(C)NC(=O)c1cc(-c2ccc(Cl)cc2)c(-c2ccc(Cl)cc2Cl)nc1Oc1ccc(F)c(F)c1` displayed an IC50 of 1600 nM.

For the compound `CC(C)(C)C(=O)Nc1nc(-c2ccc(Cl)cc2Cl)c(-c2ccc(Cl)cc2)cc1C#N`, at Cannabinoid receptor 2, the IC50 was determined as 1700 nM.

In the case of `N#Cc1cc(-c2ccc(Cl)cc2)c(-c2ccc(Cl)cc2Cl)nc1Oc1ccc(F)cc1`, the IC50 at Cannabinoid receptor 2 came to 4400 nM.

On Cannabinoid receptor 2, `N#Cc1cc(-c2ccc(Cl)cc2)c(-c2ccccc2Cl)nc1-c1cncnc1` registered an IC50 of 4300 nM.

As for `N#Cc1cc(-c2ccc(Cl)cc2)c(-c2ccccc2Cl)nc1Oc1ccc(F)c(F)c1`, it took 5700 nM to reach half-maximal inhibition on Cannabinoid receptor 2 (IC50).

As to `CC(C)(C)C#Cc1nc(-c2ccccc2Cl)c(-c2ccc(Cl)cc2)cc1C#N`, the IC50 against Cannabinoid receptor 2 was determined as 2100 nM.

For the compound `N#Cc1cc(-c2ccc(Cl)cc2)c(-c2ccc(Cl)cc2Cl)nc1Oc1ccc(Cl)cc1`, the IC50 against Cannabinoid receptor 2 came to 4200 nM.

Turning to `N#Cc1cc(-c2ccc(Cl)cc2)c(-c2ccc(Cl)cc2Cl)nc1-n1ccnc1`, the IC50 against Cannabinoid receptor 2 came out at 310 nM.

On to `N#Cc1cc(-c2ccc(Cl)cc2)c(-c2ccc(Cl)cc2Cl)nc1Oc1ccc(F)c(F)c1`, for which the Vd in “in vivo [1]” is 1.5 L/kg. The Kp at […] in the series “in vivo [2]” was 0.1. Besides, the clearance in “in vivo [3]” came out at 3.5 mL/min/kg. Further, in the series “in vivo [4]”, the half-life is 5.6 h. Further, the IC50 at Cannabinoid receptor 2 is 4100 nM. In the series “in vivo [5]”, the bioavailability is 66%. In addition, in “in vivo [6]”, the Kp at 4 h came out at 0.61.

On Cannabinoid receptor 2, `N#Cc1cc(-c2ccc(Cl)cc2)c(-c2ccc(Cl)cc2Cl)nc1OCCNC(=O)C1CCC1` displayed an IC50 of 450 nM.

For `CC(C)N1CCN(c2nc(-c3ccccc3Cl)c(-c3ccc(Cl)cc3)cc2C#N)C(=O)C1=O`, at Cannabinoid receptor 2, the concentration for half-maximal inhibition (IC50) was 715 nM.

On to `CC(C)CNc1nc(-c2ccc(Cl)cc2Cl)c(-c2ccc(Cl)cc2)cc1C#N`, for which, at Cannabinoid receptor 2, the IC50 is 1800 nM.

With `COc1ccc(Oc2nc(-c3ccc(Cl)cc3Cl)c(-c3ccc(Cl)cc3)cc2C#N)cc1`, at Cannabinoid receptor 2, the midpoint of inhibition, the IC50, lay at 3800 nM.

Regarding `N#Cc1cc(-c2ccc(Cl)cc2)c(-c2ccc(Cl)cc2Cl)nc1NC(=O)c1ccc(F)c(F)c1`, the IC50 on Cannabinoid receptor 2 is 315 nM.

Take `NC(=O)c1cc(-c2ccc(Cl)cc2)c(-c2ccc(Cl)cc2Cl)nc1Oc1ccc(F)c(F)c1`: at Cannabinoid receptor 2, the IC50 amounted to 4900 nM.

For `N#Cc1cc(-c2ccc(Cl)cc2)c(-c2ccccc2Cl)nc1N1CCN(S(=O)(=O)c2cc(F)cc(F)c2)CC1`, 1400 nM corresponded to half-maximal inhibition at Cannabinoid receptor 2 (IC50).

On Cannabinoid receptor 2, `N#Cc1cc(-c2ccc(Cl)cc2)c(-c2ccc(Cl)cc2Cl)nc1Oc1cccc(F)c1` yielded an IC50 of 2300 nM.

Regarding `N#Cc1cc(-c2ccc(Cl)cc2)c(-c2ccc(Cl)cc2Cl)nc1Oc1cccc(Cl)c1`, inhibition against Cannabinoid receptor 2 was half-maximal at 4100 nM (IC50).

Turning to `N#Cc1cc(-c2ccc(Cl)cc2)c(-c2ccc(Cl)cc2Cl)nc1Oc1cc(Cl)cc(Cl)c1`, the IC50 against Cannabinoid receptor 2 was determined as 5600 nM.

For `CNN(C)C(=O)c1cc(-c2ccc(Cl)cc2)c(-c2ccc(Cl)cc2Cl)nc1Oc1ccc(F)c(F)c1`, the IC50 against Cannabinoid receptor 2 was 650 nM.

The compound `CC(C)Oc1nc(-c2ccc(Cl)cc2Cl)c(-c2ccc(Cl)cc2)cc1C#N` came in with an IC50 at Cannabinoid receptor 2 of 860 nM.

In turn, `N#Cc1cc(-c2ccc(Cl)cc2)c(-c2ccc(Cl)cc2Cl)nc1Nc1ccc(F)cc1` showed an IC50 at Cannabinoid receptor 2 of 2800 nM.

`CC(C)(O)C#Cc1nc(-c2ccccc2Cl)c(-c2ccc(Cl)cc2)cc1C#N` registered an IC50 against Cannabinoid receptor 2 of 1800 nM.

Compound `Cn1cc(-c2nc(-c3ccccc3Cl)c(-c3ccc(Cl)cc3)cc2C#N)cn1` registered an IC50 against Cannabinoid receptor 2 of 3300 nM.

On Cannabinoid receptor 2, `CCC(N)(C#Cc1nc(-c2ccccc2Cl)c(-c2ccc(Cl)cc2)cc1C#N)CC` registered an IC50 of 1100 nM.

At Cannabinoid receptor 2, `N#Cc1cc(-c2ccc(Cl)cc2)c(-c2ccc(Cl)cc2Cl)nc1Sc1ccc(F)cc1` displayed a half-inhibitory concentration (IC50) of 5200 nM.
